Measured values reported in patent publication US20090299066A1, “TRIAZOLONE DERIVATIVES AS MMP INHIBITORS FOR THE TREATMENT OF ASTHMA AND COPD” (priority 2004, published 2009).

What was measured:
Format in all cases: biochemical
[1] = molecular target: T1, Human MMP14 (Homo sapiens, UniProt P50281); experiment: Isolated enzyme assay, MMP14
T1 construct: made in house
Source text: (§1) A protocol for testing against other matrix metalloproteinases, including MMP9, using expressed and purified pro MMP is described, for instance, by C. Graham Knight et al., (1992) FEBS Lett. 296(3):263-266.

[2] = molecular target: T2, Human MMP2 (Homo sapiens, UniProt P08253); experiment: Isolated enzyme assay, MMP2
T2 construct: made in house
T2 sequence (P08253 110-660): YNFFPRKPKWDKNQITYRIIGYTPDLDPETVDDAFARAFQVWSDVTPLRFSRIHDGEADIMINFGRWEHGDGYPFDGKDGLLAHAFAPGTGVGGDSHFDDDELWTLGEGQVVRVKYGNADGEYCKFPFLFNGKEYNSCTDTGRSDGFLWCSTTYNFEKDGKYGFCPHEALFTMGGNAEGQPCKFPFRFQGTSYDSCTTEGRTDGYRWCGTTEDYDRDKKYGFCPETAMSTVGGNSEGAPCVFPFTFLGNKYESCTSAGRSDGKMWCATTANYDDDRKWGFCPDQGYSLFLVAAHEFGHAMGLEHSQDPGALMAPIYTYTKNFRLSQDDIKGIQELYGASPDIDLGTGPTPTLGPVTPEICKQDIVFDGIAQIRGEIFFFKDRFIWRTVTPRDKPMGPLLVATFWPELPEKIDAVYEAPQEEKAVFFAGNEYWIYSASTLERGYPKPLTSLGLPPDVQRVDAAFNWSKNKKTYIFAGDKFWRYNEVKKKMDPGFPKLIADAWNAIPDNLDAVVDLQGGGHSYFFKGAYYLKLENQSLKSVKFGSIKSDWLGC
Source text: as §1

[3] = molecular target: T3, Human MMP9 (Homo sapiens, UniProt P14780); experiment: Isolated enzyme assay, MMP9
T3 construct: made in house
Source text: as §1

[4] = molecular target: T4, Human MMP8 (Homo sapiens, UniProt P22894); experiment: Isolated enzyme assay, MMP8
T4 construct: made in house
Source text: as §1

[5] = molecular target: T5, Human MMP12 (Homo sapiens, UniProt P39900); experiment: Isolated enzyme assay, MMP12 catalytic domain, fluorogenic substrate; details: recombinant human MMP12 catalytic domain
T5 construct: Recombinant human MMP12 catalytic domain may be expressed and purified as described by Parkar A. A. et al; made in house
Experimental: Recombinant human MMP12 catalytic domain may be expressed and purified as described by Parkar A. A. et al, (2000), Protein Expression and Purification, 20:152. The purified enzyme can be used to monitor inhibitors of activity as follows: MMP12 (50 ng/ml final concentration) is incubated for 60 minutes at room temperature with the synthetic substrate Mac-Pro-Cha-Gly-Nva-His-Ala-Dpa-NH2 in assay buffer (0.1M “Tris-HCl” (trade mark) buffer, pH 7.3 containing 0.1M NaCl, 20 mM CaCl2, 0.020 mM ZnCl and 0.05% (w/v) “Brij 35” (trade mark) detergent) in the presence (5 concentrations) or absence of inhibitors. Activity is determined by measuring the fluorescence at λex 320 nm and λem 405 nm. Percent inhibition is calculated as follows: % Inhibition is equal to the […].

[6] = molecular target: T6, Human MMP19 (Homo sapiens, UniProt Q99542); experiment: Isolated enzyme assay, MMP19
T6 construct: made in house
T6 sequence (Q99542 98-508): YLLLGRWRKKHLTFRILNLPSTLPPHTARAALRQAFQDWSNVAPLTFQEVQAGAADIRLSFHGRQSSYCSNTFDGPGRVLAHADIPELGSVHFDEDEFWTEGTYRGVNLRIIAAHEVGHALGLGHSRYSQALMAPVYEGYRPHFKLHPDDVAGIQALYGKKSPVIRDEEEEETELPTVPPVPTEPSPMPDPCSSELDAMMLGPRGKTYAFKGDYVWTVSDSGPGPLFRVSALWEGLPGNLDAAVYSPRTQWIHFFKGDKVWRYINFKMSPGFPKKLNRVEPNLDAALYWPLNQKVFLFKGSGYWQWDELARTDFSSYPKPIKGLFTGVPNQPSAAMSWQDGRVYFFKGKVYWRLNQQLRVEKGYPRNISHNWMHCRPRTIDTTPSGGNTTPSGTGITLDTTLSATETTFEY
Source text: as §1

T4 sequence (P22894 101-467): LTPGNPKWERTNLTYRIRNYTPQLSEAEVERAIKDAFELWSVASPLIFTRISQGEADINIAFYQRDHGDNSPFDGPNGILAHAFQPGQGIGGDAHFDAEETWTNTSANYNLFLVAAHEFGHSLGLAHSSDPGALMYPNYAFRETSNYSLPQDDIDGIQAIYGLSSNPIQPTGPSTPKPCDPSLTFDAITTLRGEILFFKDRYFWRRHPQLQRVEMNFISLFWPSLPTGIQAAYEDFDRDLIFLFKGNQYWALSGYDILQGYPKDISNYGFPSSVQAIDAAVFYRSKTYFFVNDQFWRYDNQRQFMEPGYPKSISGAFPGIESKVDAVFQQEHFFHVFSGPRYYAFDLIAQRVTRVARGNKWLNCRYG
T5 sequence (P39900 106-263 limits assumed): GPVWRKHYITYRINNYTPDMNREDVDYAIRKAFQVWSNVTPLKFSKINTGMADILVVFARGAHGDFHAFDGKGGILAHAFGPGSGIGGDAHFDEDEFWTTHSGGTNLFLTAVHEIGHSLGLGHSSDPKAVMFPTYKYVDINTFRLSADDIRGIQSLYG
T3 sequence (P14780 94-707): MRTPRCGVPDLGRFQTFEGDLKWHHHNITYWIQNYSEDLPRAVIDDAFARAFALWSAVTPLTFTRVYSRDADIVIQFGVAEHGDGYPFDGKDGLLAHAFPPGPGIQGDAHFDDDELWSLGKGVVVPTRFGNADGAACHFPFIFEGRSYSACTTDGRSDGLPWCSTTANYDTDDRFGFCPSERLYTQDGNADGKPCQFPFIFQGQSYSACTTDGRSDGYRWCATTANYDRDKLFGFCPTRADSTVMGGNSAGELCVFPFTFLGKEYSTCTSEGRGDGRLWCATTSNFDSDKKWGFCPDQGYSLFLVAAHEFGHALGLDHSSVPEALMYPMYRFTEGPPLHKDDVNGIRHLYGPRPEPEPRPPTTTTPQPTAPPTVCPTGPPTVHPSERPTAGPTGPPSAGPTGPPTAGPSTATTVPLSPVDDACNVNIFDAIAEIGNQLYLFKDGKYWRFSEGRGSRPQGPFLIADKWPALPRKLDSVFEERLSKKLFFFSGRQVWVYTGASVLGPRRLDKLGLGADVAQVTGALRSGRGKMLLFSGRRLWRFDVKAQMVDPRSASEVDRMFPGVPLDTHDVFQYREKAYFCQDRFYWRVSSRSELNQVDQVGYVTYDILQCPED

IC50 [1] | IC50 [2] | IC50 [3] | IC50 [4] | IC50 [5] | IC50 [6] | SMILES
6.66 µM | 1010 nM | 318 nM | 243 nM | 65 nM |  | O=c1[nH]nc(CCS(=O)(=O)N2CCC(Oc3ccc(Cl)cn3)CC2)[nH]1 [Example 2, 5-[2-({4-[(5-Chloropyridin-2-yl)oxy]piperidin-1-yl}sulfonyl)ethyl]-2,4-dihydro-3H-1,2,4-triazol-3-one]
6.85 µM | 263 nM | 5.7 nM | 284 nM | 2.4 nM | 4300 nM | O=c1[nH]nc(CS(=O)(=O)N2CC=C(C#Cc3cnc(C(F)(F)F)nc3)CC2)[nH]1 [Example 6, 5-({[4-{[2-(Trifluoromethyl)pyrimidin-5-yl]ethynyl}-3,6-dihydropyridin-1(2H)-yl]sulfonyl}methyl)-2,4-dihydro-3H-1,2,4-triazol-3-one]
1.75 µM | 142 nM | 414 nM | 31 nM | 18 nM | 64 nM | O=c1[nH]nc(CS(=O)(=O)N2CCN(c3ccc(Cl)cc3)CC2)[nH]1 [Example 4, 5-({[4-(4-Chlorophenyl)piperazin-1-yl]sulfonyl}methyl)-2,4-dihydro-3H-1,2,4-triazol-3-one]
